Results reported in the METLIN SMRT retention time set (Domingo-Almenara et al. 2019).

Test: gradient 5% acetonitrile 3 min, to 50% in 2 min, to 85% in 15 min, held 3 min, 100 µL/min
Conditions: column: Zorbax Extend-C18 2.1 x 50 mm; eluents: water / acetonitrile, 0.1% formic acid
Outline: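 Data were gathered over 3 months by HPLC coupled to a quadrupole time-of-flight mass spectrometer, operated in positive and negative ionization mode. Mixtures of ~100 pure standards ran on a Zorbax Extend-C18 column (2.1 × 50 mm, 1.8 μm) at 100 μL/min, with water and acetonitrile each containing 0.1% formic acid and dead and dwell volumes of 40 μL and 900 μL. Retention time was read from adduct peaks picked by computer and checked manually.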

Row | Structure (SMILES) | RP-LC retention time
1 | CCCCCC(=O)Nc1cc(-c2nc3ccccc3[nH]2)ccc1C | 712 s
2 | CCn1ccc2c(cc(C(=O)NCc3ccc4c(c3)OCO4)n2C)c1=O | 676 s
3 | Cn1c(=O)c2c(nc(Cc3ccccc3)n2C)n(C)c1=O | 764 s
4 | CCc1nc(N)n(CC(=O)Nc2cc(F)ccc2C)c(=O)c1C | 620 s
5 | O=C1COc2cc(Cl)ccc2N1Cc1nc(-c2ccccc2)no1 | 1060 s
6 | Cc1cc(C)c(S(=O)(=O)N2CCc3c(c(-c4nnc(-c5ccccc5F)o4)nn3C)C2)cc1C | 1070 s
7 | CCC(=O)N(C)CCc1noc(-c2ccc(C(=O)NCCN(C)C)cc2)n1 | 579 s
8 | COCCNC(=O)CSc1nccc2c1ccn2Cc1ccccc1 | 666 s
9 | Brc1ccc(-c2nnc(Cc3nc(-c4ccccc4)no3)o2)cc1 | 1100 s
10 | COC(=O)c1sccc1NC(=O)N1CCCn2nc(-c3cccs3)cc2C1 | 984 s
11 | COc1ccc(-c2cn3cccnc3n2)cc1NC(=O)c1c(-c2ccccc2Cl)noc1C | 770 s
12 | COc1cccc(C2C(C(=O)NCCC(C)C)c3ccccc3C(=O)N2C2CC2)c1 (centres undefined) | 838 s
13 | CC(=O)Nc1ccc(CCc2nc3ccc(C(=O)NC4CCCCCC4)cc3[nH]2)cc1 | 650 s
14 | CCCS(=O)(=O)NCC1CC(=O)N(c2ccc(F)cc2)C1 (centres undefined) | 669 s
15 | CCOCC(=O)N1CCCC(c2nc(CNC(=O)C3CCC3)cs2)C1 (centres undefined) | 645 s
16 | CCCN1CC[C@@H]2c3cc(O)ccc3CC[C@@H]21 | 593 s
17 | CC(=O)Nc1ccc(S(=O)(=O)NC2(c3nc(C4CC4)no3)CCCCC2)cc1Cl | 813 s
18 | Cc1nc(-c2cnccn2)nc2c1CCC(=O)N2Cc1cccnc1 | 556 s
19 | COc1cc(-c2nc3cccc(C)n3c2Nc2ccc3c(c2)OCCO3)ccc1O | 634 s
20 | Cc1cc2ccccc2n1CCNC(=O)C(=O)c1c[nH]c2ccccc12 | 1010 s
21 | O=C(NC1CC1)c1cccc(OCC2CCCN(C(=O)C3CCC3)C2)c1 (centres undefined) | 789 s
22 | CC(=O)N1CCCSc2ccc(S(=O)(=O)N3CCN(c4ccc(Cl)cc4)CC3)cc21 | 983 s
23 | CC(C)n1cc(S(=O)(=O)Nc2ccc(F)cc2F)c2cccnc21 | 890 s
24 | O=C(O)c1ccc2c(c1)N(S(=O)(=O)c1ccccc1F)CC2 | 789 s
25 | COc1ccc(N2CC(c3nc(-c4cc(OC)c(OC)c(OC)c4)no3)CC2=O)cc1 (centres undefined) | 743 s
26 | COc1ccc(NC(=O)N2CCC3(CC2)NC(=O)c2ccc(Cl)cc2N3C)c(C)c1 | 787 s
27 | Cc1ccc(C(=O)NCC2CCCN(S(=O)(=O)c3c(C)c(C)cc(C)c3C)C2)cc1 (centres undefined) | 1100 s
28 | Cn1c(-c2ccccc2)nn(CCNC(=O)c2cc3ccccc3o2)c1=O | 694 s

Row | Structure (SMILES) | RP-LC retention time
29 | COc1ccc(-c2ncc3c(=O)n(Cc4ccc(Br)cc4F)c(=O)n(C)c3n2)cc1 | 1290 s
30 | CCCN1C(=O)Cc2ccccc2C1C(=O)NCCOC (centres undefined) | 641 s
31 | O=Cc1cn(Cc2ccc(Cl)cc2)c2ccccc12 | 968 s
32 | O=C(NC1CC1)c1c2c(nc3ccccc13)CCCC2 | 585 s
33 | CCSc1ccccc1C(=O)NC(C)Cc1ccco1 (centres undefined) | 841 s
34 | Cc1nn(-c2nc(-c3ccccc3)cs2)c(C)c1CC(=O)Nc1ccccc1 | 1130 s
35 | O=c1c2cc(-c3cccs3)nn2cnn1Cc1nc(-c2ccc(F)cc2)no1 | 1040 s
36 | CN(C)c1cc(C(=O)NC2CC2)c2ccccc2n1 | 565 s
37 | CC(C)CN1CCn2cc(S(=O)(=O)NCc3ccccc3F)cc2C1=O | 792 s
38 | CC1CCCCN1CCNC(=O)CN1CCc2ccccc2C1C(=O)N1CCCCC1 (centres undefined) | 617 s
39 | COc1ccc(NS(=O)(=O)c2cc(-c3[nH]ncc3C(=O)N(C)C)oc2C)c(C)c1 | 681 s
40 | COc1ccccc1NC(=O)C1CC(=O)N(c2n[nH]c3cccc(F)c23)C1 (centres undefined) | 728 s
41 | Cn1cc(CC(=O)NCc2cc(F)cc(F)c2)c2cccnc21 | 702 s
42 | COc1cccc(-c2ccnc3nc(Cc4ccc(F)cc4)nn23)c1 | 922 s
43 | COc1ccc(Cn2cc(S(=O)(=O)N3CCCC3)ccc2=O)cc1 | 796 s
44 | COc1ccc(CNC(=O)C2CCCN(c3nnc4ccc(Cl)cn34)C2)c(OC)c1 (centres undefined) | 753 s
45 | O=C(CN1C(=O)CCCc2cc(S(=O)(=O)N3CCCCCC3)ccc21)Nc1cccc(F)c1 | 988 s
46 | Cc1ccc(OCC(=O)N(Cc2ccc(N(C)C)cc2)C2CCS(=O)(=O)C2)cc1C (centres undefined) | 774 s
47 | CCc1ccc(-n2ncc3c(=O)n(Cc4nc(-c5ccccc5OC)no4)cnc32)cc1 | 1040 s
48 | COc1ccc(C(=O)N(CC(=O)N(Cc2ccco2)CC2CCCO2)C(C)(C)C)cc1 (centres undefined) | 862 s
49 | CCn1c(CN(c2ccc(F)cc2)S(C)(=O)=O)nnc1SCc1nnc(-c2ccccc2)o1 | 760 s
50 | CC(C)c1noc(-c2cc(=O)n(CC(=O)Nc3ccc4c(c3)OCO4)c3ccccc23)n1 | 956 s
51 | CNc1nc(Nc2ccccc2F)nc2ccccc12 | 634 s
52 | CN(CC(=O)Nc1ccc2c(c1)OCO2)c1nc2c(F)cccc2s1 | 828 s
53 | Cc1nc2cc(-c3noc(-c4cc(Cl)ccc4Cl)n3)ccc2o1 | 1290 s
54 | CN(C)S(=O)(=O)NCc1nnnn1C1CCCCC1 | 681 s
55 | CN(CCc1noc(COc2ccccc2F)n1)C(=O)c1c(F)cccc1F | 885 s

The next lines start with the values.

Row | RP-LC retention time | Structure (SMILES)
56 | 640 s | Cc1ccc(N2CC(C(=O)N3CCCC3)CC2=O)cc1 (centres undefined)
57 | 559 s | CCN1CCN(C(=O)C2CCCN(c3nccc(C)n3)C2)CC1 (centres undefined)
58 | 1000 s | O=C(Cn1c(=O)cc(-c2nc(C3CC3)no2)c2ccccc21)NCCc1ccc(Cl)cc1
59 | 885 s | O=C(Nc1ccccc1)c1cccn1Cc1noc(C2CC2)n1
60 | 831 s | Cc1noc(C)c1S(=O)(=O)N1CCC(Cc2ccc(COc3ccncc3)cc2)CC1
61 | 563 s | O[C@@H]1C[C@@H](c2nnc3n2CCN(Cc2ccccc2)C3)N(Cc2cccnc2)C1
62 | 727 s | Cc1ccc(NC(=O)C2CCN(S(=O)(=O)c3c(C)[nH]c(C)c3C(=O)N3CCCC3)CC2)cc1C
63 | 802 s | O=C(NCc1ccc(Cl)cc1)C1CCN(C(=O)c2ncn3c2COC(c2ccccc2)C3)CC1 (centres undefined)
64 | 1290 s | O=S(=O)(c1cc(-c2cc(C(F)(F)F)on2)cs1)N1CCN(c2ccc(Cl)cc2)CC1
65 | 587 s | CN1CCN(C(CNC(=O)Cc2ccc(Cl)cc2)c2ccc3c(c2)OCO3)CC1 (centres undefined)
66 | 1160 s | CCOc1ccccc1NC(=O)CSc1cc(N2CCN(c3ccccc3OC)CC2)ncn1
67 | 873 s | CCC(C)NC(=O)N1CC(Oc2ccc(-c3nc(C)no3)cc2)C1 (centres undefined)
68 | 874 s | O=C(NCc1ccc(F)cc1)N1CCc2nc(-c3ccccc3)ncc2C1
69 | 851 s | CCCC(=O)N1CCN(c2ccc(=O)n(-c3ccc(C(C)C)cc3)n2)CC1
70 | 683 s | COc1ccc(N2CCN(C(=O)c3cn4nc(OC)ccc4n3)CC2)cc1
71 | 647 s | Nc1cc(C2CCN(C(=O)c3nccc4ccccc34)CC2)no1
72 | 608 s | CCOC(=O)c1c(C)[nH]c(C(=O)N2CCC(CC(=O)NCc3cccnc3)CC2)c1C

Row | RP-LC retention time | Structure (SMILES)
73 | 1220 s | Cc1ccc(-n2nc(C)c3sc(N4CCCC(C(=O)NCc5ccc(F)cc5Cl)C4)nc32)cc1 (centres undefined)
74 | 838 s | CCc1cccc(NC(=O)C2CCN(S(=O)(=O)c3ccc4c(c3)NC(=O)C(C)O4)CC2)c1 (centres undefined)
75 | 712 s | CC(=O)N1CCC(C(=O)Nc2ccc(OCc3nnc(-c4ccccc4)o3)cc2)CC1
76 | 640 s | CC1CCCN(C(=O)c2ccc3ncnc(N4CCCC4)c3c2)C1 (centres undefined)
77 | 987 s | CCc1nnc(-c2ccc3ccn(CC(=O)N4CCN(c5cccc(Cl)c5)CC4)c3c2)o1
78 | 1020 s | CCc1nc(-c2csc(S(=O)(=O)N3CCCC(C(=O)Nc4ccc(C#N)cc4)C3)c2)no1 (centres undefined)
79 | 667 s | Cc1ccc2oc(-c3nnc(C(=O)NCCN4CCOCC4)o3)c(C)c2c1
80 | 900 s | CC1=C(c2ccc(Cl)cc2)S(=O)(=O)N=C1N1CCCN(C(=O)C(C)(C)C)CC1
81 | 676 s | O=C(Nc1cccc(F)c1)N1CCCC(Cn2c(C3CC3)nc3cccnc32)C1 (centres undefined)
82 | 606 s | COc1ccc(OC)c(-c2[nH]ncc2CN2CC(F)(F)C[C@H]2CN2CCOCC2)c1
83 | 951 s | CCCNC(=O)C1CCN(c2nc3ccc(-c4ccccc4F)nc3s2)CC1
84 | 936 s | O=C(CCn1nnc2cc(-c3noc(-c4ccc(Cl)cc4)n3)ccc21)N1CCOCC1
85 | 539 s | OC(CN1CCN(c2ccccn2)CC1)c1ccc2c(c1)OCO2 (centres undefined)
86 | 644 s | Cc1cc(C)cc(NC(=O)N2CCN(c3cc(-c4cccnc4)[nH]n3)CC2)c1
87 | 717 s | Cc1nc(CNC(=O)c2ccc(-c3noc(C4CC4)n3)cc2)no1
88 | 727 s | Cc1ccc(C2CC(=O)c3cnc(N4CCN(c5ccccn5)CC4)nc3C2)cc1 (centres undefined)
89 | 641 s | CCN1CCN(C(=O)c2cnn(-c3cc(-c4nc(C5CC5)no4)ccn3)c2C)CC1
